The source of these data is patent publication US20110306573A1, “NUCLEOSIDE DERIVATIVES AS INHIBITORS OF VIRAL POLYMERASES” (priority 2008, published 2011).

Counter-ions that a name gives are not always drawn. Bounds are passed on as bounds.

In the first test the target is T1, HCV NS5B polymerase (Hepatitis C virus genotype 1b, UniProt P26663).
T1 construct: RNA-dependent RNA polymerase (NS5B) of the hepatitis C virus (HCV)
T1 sequence (P26663 2420-2955): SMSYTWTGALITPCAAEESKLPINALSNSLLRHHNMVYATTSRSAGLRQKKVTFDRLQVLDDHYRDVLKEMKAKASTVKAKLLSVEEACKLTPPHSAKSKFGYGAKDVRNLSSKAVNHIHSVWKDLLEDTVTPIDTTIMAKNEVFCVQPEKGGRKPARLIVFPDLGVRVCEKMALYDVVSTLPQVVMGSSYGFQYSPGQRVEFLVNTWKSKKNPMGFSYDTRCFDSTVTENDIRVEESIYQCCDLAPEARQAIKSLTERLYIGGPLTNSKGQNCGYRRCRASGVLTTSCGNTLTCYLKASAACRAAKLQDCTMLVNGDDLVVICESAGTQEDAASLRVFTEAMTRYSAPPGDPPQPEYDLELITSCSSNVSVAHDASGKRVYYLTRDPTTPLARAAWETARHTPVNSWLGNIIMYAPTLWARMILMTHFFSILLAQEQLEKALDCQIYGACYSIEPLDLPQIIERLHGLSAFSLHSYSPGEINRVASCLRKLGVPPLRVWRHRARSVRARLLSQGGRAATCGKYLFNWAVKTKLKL
In words: Assay for inhibition of HCV NS5B polymerase (RdRp, 3H-UTP incorporation on heteromeric RNA template). Format: biochemical. The conditions noted are these: heterogeneous template dCoh, 2 nM DC55-lb.BK or 10 nM DC55-2b.2, NTPs 1 uM, room temperature 2 hours. The method, then: The effectiveness of the compounds of the present invention as inhibitors of HCV NS5B RNA-dependent RNA polymerase (RdRp) was measured in the following assay.
This assay was used to measure the ability of the nucleoside derivatives of the present invention to inhibit the enzymatic activity of the RNA-dependent RNA polymerase (NS5B) of the hepatitis C virus (HCV) on a heteromeric RNA template.
Assay Buffer Conditions: (52.5 μL-total/reaction)
20 nM heterogeneous template dCoh
2.5 μl/reaction inhibitor compound in H2O
The compounds were tested at various concentrations up to 100 μM final concentration. Nucleoside derivatives were pipetted into wells of a 96-well plate. The enzyme diluted in the reaction buffer was pipetted into the wells and incubated at room temperature for 10 minutes; then the template dCoh was added and incubated for 10 minutes at room temperature. The reaction was initiated by addition of a mixture of nucleotide triphosphates (NTP's), including the radiolabeled UTP, and allowed to proceed at room temperature for 2 hours. Blank samples were done omitting the dCoh template. The reaction was quenched by addition of 50 ul TCA 20% (trichloroacetic acid)/NaPPi 20 mM and the plates were put in ice for 5 minutes. Then, the mixtures were filtered onto Unifilter GF/B 96-well plates (PerkinElmer), washed with TCA 2.5%. 50 ul/well of scintillator solution (Microscint 20, PerkinElmer) were added and the plates were counted in a scintillator counter.
The percentage of inhibition was calculated according to the following equation:
% Inhibition=[1−(cpm in test reaction−cpm in blank)/(cpm in control reaction−cpm in blank)]×100.
As for “7-(2-C-methyl-5-triphospho-β-D-ribofuranosyl)-5-(1-methyl-1H-tetrazol-5-yl)-7H-pyrrolo[2,3-d]pyrimidin-4-amine and 7-(2-C-methyl-5-triphospho-β-D-ribofuranosyl)-5-(2-methyl-2H-tetrazol-5-yl)-7H-pyrrolo[2,3-d]pyrimidin-4-amine [Compound 10]”, the IC50 (usually the concentration needed to halve the response being measured) is less than 50 µM.

The compound `C[C@@]1(O)[C@H](O)[C@@H](COP(=O)(O)OP(=O)(O)OP(=O)(O)O)O[C@H]1n1cc(-c2ncco2)c2c(N)ncnc21` [Compound 11, 7-(2-C-methyl-5-triphospho-β-D-ribofuranosyl)-5-(1,3-oxazol-2-yl)-7H-pyrrolo[2,3-d]pyrimidin-4-amine] gave an IC50 of less than 1 µM. Same read-out and setting: next, `C[C@@]1(O)[C@H](O)[C@@H](COP(=O)(O)OP(=O)(O)OP(=O)(O)O)O[C@H]1n1cc(-c2ncccn2)c2c(N)ncnc21` [Compound 12, 7-(2-C-methyl-5-triphospho-β-D-ribofuranosyl)-5-pyrimidin-2-yl-7H-pyrrolo[2,3-d]pyrimidin-4-amine]: less than 50 µM. Same read-out and setting: next, `COc1nc(-c2cn([C@@H]3O[C@H](COP(=O)(O)OP(=O)(O)OP(=O)(O)O)[C@@H](O)[C@@]3(C)O)c3ncnc(N)c23)cs1` [Compound 13, 5-(2-methoxy-1,3-thiazol-4-yl)-7-(2-C-methyl-5-triphospho-β-D-ribofuranosyl)-7H-pyrrolo[2,3-d]pyrimidin-4-amine]: less than 50 µM. On the same count and under the same terms, the figure for `C[C@@]1(O)[C@H](O)[C@@H](COP(=O)(O)OP(=O)(O)OP(=O)(O)O)O[C@H]1n1cc(-c2cc[nH]n2)c2c(N)ncnc21` [Compound 14, 7-(2-C-methyl-5-triphospho-β-D-ribofuranosyl)-5-(1H-pyrazol-5-yl)-7H-pyrrolo[2,3-d]pyrimidin-4-amine] is less than 1 µM.

Another test relates to subgenomic HCV Replicon in HuH-7 hepatoma cells. As to the kind of experiment: Assay for inhibition of HCV RNA replication (subgenomic replicon, in situ ribonuclease protection SPA). The format is cell-based, Hepatitis C Virus. The settings on record: Hepatitis C virus, Huh-7. The method, then: The compounds of the present invention were also evaluated for their ability to affect the replication of Hepatitis C Virus RNA in cultured hepatoma (HuH-7) cells containing a subgenomic HCV Replicon. The details of the assay are described below. This Replicon assay is a modification of that described in V. Lohmann, F. Korner, J-O. Koch, U. Herian, L. Theilmann, and R. Bartenschlager, “Replication of a Sub-genomic Hepatitis C Virus RNAs in a Hepatoma Cell Line,” Science 285:110 (1999).
The assay was an in situ Ribonuclease protection, Scintillation Proximity based-plate assay (SPA). 10,000-40,000 cells were plated in 100-200 μL of media containing 0.8 mg/mL G418 in 96-well cytostar plates (Amersham). Compounds were added to cells at various concentrations up to 100 μM in 1% DMSO at time 0 to 18 h and then cultured for 24-96 h. Cells were fixed (20 min, 10% formalin), permeabilized (20 min, 0.25% Triton X-100/PBS) and hybridized (overnight, 50° C.) with a single-stranded ^33P RNA probe complementary to the (+) strand NS5B (or other genes) contained in the RNA viral genome. Cells were washed, treated with RNAse, washed, heated to 65° C. and counted in a Top-Count Inhibition of replication was read as a decrease in counts per minute (cpm).
Human HuH-7 hepatoma cells, which were selected to contain a subgenomic replicon, carry a cytoplasmic RNA consisting of an HCV 5′ non-translated region (NTR), a neomycin selectable marker, an EMCV IRES (internal ribosome entry site), and HCV non-structural proteins NS3 through NS5B, followed by the 3′ NTR.
(In antiviral work, replicon cells carry a viral genome segment that copies itself.)
`CCOC(=O)[C@H](C)NP(=O)(OC[C@H]1O[C@@H](n2cc(-c3ccn[nH]3)c3c(N)ncnc32)[C@](C)(O)[C@@H]1O)Oc1ccccc1` (stereo in doubt) [Compound 29, Ethyl 2-{[(R)-({(2R,3S,4R,5R)-5-[4-amino-5-(1H-pyrazol-5-yl)-7H-pyrrolo[2,3-d]pyrimidin-7-yl]-3,4-dihydroxy-4-methyltetrahydrofuran-2-yl}methoxy)(phenoxy)phosphoryl]amino}propanoate]: the EC50 – broadly, the concentration at which the effect is half-maximal – was less than 20 µM. On the same count and under the same terms, the figure for `CCOC(=O)[C@H](C)NP(=O)(OC[C@H]1O[C@@H](n2cc(-c3ncco3)c3c(N)ncnc32)[C@](C)(O)[C@@H]1O)Oc1ccccc1` (stereo in doubt) [Compound 30, Ethyl 2-{[(R)-({(2R,3S,4R,5R)-5-[4-amino-5-(1,3-oxazol-2-yl)-7H-pyrrolo[2,3-d]pyrimidin-7-yl]-3,4-dihydroxy-4-methyltetrahydrofuran-2-yl}methoxy)(phenoxy)phosphoryl]amino}propanoate] is less than 20 µM. Same read-out and setting: the figure for `COc1nc(-c2cn([C@@H]3O[C@H](CO)[C@@H](O)[C@@]3(C)O)c3ncnc(N)c23)cs1` [Compound 4, 5-(2-methoxy-1,3-thiazol-4-yl)-7-(2-C-methyl-β-D-ribofuranosyl)-7H-pyrrolo[2,3-d]pyrimidin-4-amine trifluoroacetate] is greater than 50 µM. The same measure, in the same setting: next, `Cn1cc(-c2cn([C@@H]3O[C@H](CO)[C@@H](O)[C@@]3(C)O)c3ncnc(N)c23)nn1` [Compound 8, 7-(2-C-methyl-β-D-ribofuranosyl)-5-(1-methyl-1H-1,2,3-triazol-4-yl)-7H-pyrrolo[2,3-d]pyrimidin-4-amine trifluoroacetate]: 20 to 50 µM.

Still in this test, the particulars now being: Hepatitis C virus; HuH-7 cells containing a subgenomic HCV Replicon, compounds up to 100 μM in 1% DMSO, cultured 24-96 h; read-out: EC50.
`C[C@@]1(O)[C@H](O)[C@@H](CO)O[C@H]1n1cc(-c2ncco2)c2c(N)ncnc21` [Compound 2, 7-(2-C-methyl-β-D-ribofuranosyl)-5-(1,3-oxazol-2-yl)-7H-pyrrolo[2,3-d]pyrimidin-4-amine]: the concentration giving a half-maximal response (EC50) is less than 20 µM.

For the compound `C[C@@]1(O)[C@H](O)[C@@H](CO)O[C@H]1n1cc(-c2ncccn2)c2c(N)ncnc21` [Compound 3, 7-(2-C-methyl-β-D-ribofuranosyl)-5-pyrimidin-2-yl-7H-pyrrolo[2,3-d]pyrimidin-4-amine], the EC50 was greater than 50 µM. Same read-out and setting: the figure for `C[C@@]1(O)[C@H](O)[C@@H](CO)O[C@H]1n1cc(-c2ccn[nH]2)c2c(N)ncnc21` [Compound 5, 7-(2-C-methyl-β-D-ribofuranosyl)-5-(1H-pyrazol-5-yl)-7H-pyrrolo[2,3-d]pyrimidin-4-amine] is 20 to 50 µM. For `C[C@@]1(O)[C@H](O)[C@@H](CO)O[C@H]1n1cc(-c2cn[nH]c2)c2c(N)ncnc21` [Compound 6, 7-(2-C-methyl-β-D-ribofuranosyl)-5-(1H-pyrazol-4-yl)-7H-pyrrolo[2,3-d]pyrimidin-4-amine], the EC50 fell in the range of 20 to 50 µM. The same measure, in the same setting: the figure for `C[C@@]1(O)[C@H](O)[C@@H](CO)O[C@H]1n1cc(-c2ncon2)c2c(N)ncnc21` [Compound 7, 7-(2-C-methyl-β-D-ribofuranosyl)-5-(1,2,4-oxadiazol-3-yl)-7H-pyrrolo[2,3-d]pyrimidin-4-amine] is less than 20 µM; for `C[C@@]1(O)[C@H](O)[C@@H](CO)O[C@H]1n1cc(-c2cccs2)c2c(N)ncnc21` [Compound 9, 7-(2-C-methyl-β-D-ribofuranosyl)-5-(2-thienyl)-7H-pyrrolo[2,3-d]pyrimidin-4-amine] it is less than 20 µM; for `C[C@@]1(F)[C@H](O)[C@@H](CO)O[C@H]1n1cc(-c2ccn[nH]2)c2c(N)ncnc21` [Compound 21, 7-(2-deoxy-2-fluoro-2-methyl-β-D-ribofuranosyl)-5-(1H-pyrazol-5-yl)-7H-pyrrolo[2,3-d]pyrimidin-4-amine] it is 20 to 50 µM. Still for that read-out and setting: the figure for `C[C@@]1(F)[C@H](O)[C@@H](CO)O[C@H]1n1cc(-c2ncco2)c2c(N)ncnc21` [Compound 22, 7-(2-deoxy-2-fluoro-2-methyl-β-D-ribofuranosyl)-5-(1,3-oxazol-2-yl)-7H-pyrrolo[2,3-d]pyrimidin-4-amine] is 20 to 50 µM; for `C[C@@]1(F)[C@H](O)[C@@H](CO)O[C@H]1n1cc(-c2ncon2)c2c(N)ncnc21` [Compound 23, 7-(2-deoxy-2-fluoro-2-methyl-β-D-ribofuranosyl)-5-(1,2,4-oxadiazol-3-yl)-7H-pyrrolo[2,3-d]pyrimidin-4-amine] it is 20 to 50 µM.

With `COc1ccc(-c2cn([C@@H]3O[C@H](CO)[C@@H](O)[C@@]3(C)O)c3ncnc(N)c23)cn1` [Compound 24, 7-(2-C-methyl-β-D-ribofuranosyl)-5-(6-methoxypyridin-3-yl)-7H-pyrrolo[2,3-d]pyrimidin-4-amine], the EC50 was greater than 50 µM. The same measure, in the same setting: next, `C[C@@]1(O)[C@H](O)[C@@H](CO)O[C@H]1n1nc(-c2cc[nH]n2)c2c(N)ncnc21` [Compound 25, 1-(2-C-methyl-β-D-ribofuranosyl)-3-(1H-pyrazol-3-yl)-1H-pyrazolo[3,4-d]pyrimidin-4-amine]: less than 20 µM; `C[C@@]1(O)[C@H](O)[C@@H](CO)O[C@H]1n1cc(-c2nnco2)c2c(N)ncnc21` [Compound 27, 7-(2-C-methyl-β-D-ribofuranosyl)-5-(1,3,4-oxadiazol-2-yl)-7H-pyrrolo[2,3-d]pyrimidin-4-amine]: less than 20 µM.

Still in this test, the particulars now being: HuH-7 cells containing a subgenomic HCV Replicon, compounds up to 100 μM in 1% DMSO, cultured 24-96 h; read-out: EC50.
In the case of “7-(2-C-methyl-β-D-ribofuranosyl)-5-(1-methyl-1H-tetrazol-5-yl)-7H-pyrrolo[2,3-d]pyrimidin-4-amine (A) and 7-(2-C-methyl-β-D-ribofuranosyl)-5-(2-methyl-2H-tetrazol-5-yl)-7H-pyrrolo[2,3-d]pyrimidin-4-amine (B) [Compound 1]”, the EC50 is less than 20 µM.
